Key:
[1] = biological target: T1, human TLR2 (Pam2CSK4, TLR2/6 agonist) in HEK-Blue hTLR2 cells (Homo sapiens, UniProt O60603); assay: HEK-Blue hTLR2 antagonism assay (SEAP reporter) with Pam2CSK4 as agonist; type: cell-based; conditions: 2 h compound pre-incubation, approx. 3×EC50 Pam2CSK4, 18 h, SEAP OD 655 nm, background subtracted
T1 construct: host or cells: HEK-Blue hTLR2 (HEK-293)
Procedure, shortened: (§1)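 HEK-Blue hTLR2 cells (HEK-293 with human TLR2 and NFκB-driven SEAP), 1×10^5/well, pretreated with compound (1% DMSO final) for 2 h, then stimulated with about 3×EC50 Pam3CSK4 or Pam2CSK4 (EC50 set each run) for 18 h at 37 °C. Supernatant SEAP read by Quanti-Blue at OD 655 nm after 15 min; background-subtracted IC50.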

[2] = biological target: T2, human TLR2 (Pam3CSK4, TLR1/2 agonist) in HEK-Blue hTLR2 cells (Homo sapiens, UniProt O60603); assay: HEK-Blue hTLR2 antagonism assay (SEAP reporter) with Pam3CSK4 as agonist; type: cell-based; conditions: 2 h compound pre-incubation, approx. 3×EC50 Pam3CSK4, 18 h, SEAP OD 655 nm, background subtracted
T2 construct: host or cells: HEK-Blue hTLR2 (HEK-293)
T2 sequence (O60603 19-784 limits assumed): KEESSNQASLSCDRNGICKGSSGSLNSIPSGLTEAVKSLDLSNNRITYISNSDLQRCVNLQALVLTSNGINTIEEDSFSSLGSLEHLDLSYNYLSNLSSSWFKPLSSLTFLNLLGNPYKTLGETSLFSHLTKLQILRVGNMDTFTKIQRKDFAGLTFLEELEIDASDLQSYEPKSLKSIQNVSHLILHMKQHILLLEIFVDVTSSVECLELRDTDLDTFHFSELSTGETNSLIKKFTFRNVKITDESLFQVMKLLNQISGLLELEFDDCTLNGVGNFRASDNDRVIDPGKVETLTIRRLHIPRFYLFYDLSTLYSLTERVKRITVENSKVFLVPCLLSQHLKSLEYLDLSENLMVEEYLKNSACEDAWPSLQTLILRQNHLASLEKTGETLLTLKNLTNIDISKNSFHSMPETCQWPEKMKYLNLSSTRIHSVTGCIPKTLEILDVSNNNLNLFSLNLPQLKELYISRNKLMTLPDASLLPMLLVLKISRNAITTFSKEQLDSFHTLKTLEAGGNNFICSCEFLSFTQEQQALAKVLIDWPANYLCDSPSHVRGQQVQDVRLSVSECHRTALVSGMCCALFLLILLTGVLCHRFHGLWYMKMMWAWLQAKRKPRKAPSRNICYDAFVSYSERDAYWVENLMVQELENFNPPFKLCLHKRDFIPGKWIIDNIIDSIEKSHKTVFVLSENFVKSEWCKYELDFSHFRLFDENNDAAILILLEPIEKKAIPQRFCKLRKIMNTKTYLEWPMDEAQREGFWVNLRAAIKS
Procedure, shortened: as §1

T1 sequence (O60603 19-784 limits assumed): as above

SMILES	IC50 [1] [µM]	IC50 [2] [µM]
CCN1CCN(/N=C/c2cc(/C=C/c3ccc(N4CCCC4)cc3)cc(F)c2O)CC1 [compound 93, 2-((E)-((4-ethylpiperazin-1-yl)imino)methyl)-6-fluoro-4-((E)-4-(pyrrolidin-1-yl)styryl)phenol]	24.5	3.2
Oc1c(F)cc(/C=C/c2ccc(N3CCCC3)cc2)cc1/C=N/N1CCOCC1 [compound 94, 2-fluoro-6-((E)-(morpholinoimino)methyl)-4-((E)-4-(pyrrolidin-1-yl)styryl)phenol]	2.9	1.4
CC(C)(C)OC(=O)N1CCN(/N=C/c2cc(/C=C/c3ccc(N4CCCC4)cc3)cc(F)c2O)CC1 [compound 95, tert-butyl 4-(((E)-3-fluoro-2-hydroxy-5-((E)-4-(pyrrolidin-1-yl)styryl)benzylidene)amino)piperazine-1-carboxylate]	4.4	3.6
Oc1c(F)cc(/C=C/c2ccc(N3CCCC3)cc2)cc1/C=N/N1CCNCC1 [compound 96]	3.2	1.3

— US11345713B2, “Compounds as modulators of TLR2 signaling” (Neuropore Therapies, inc., priority 2018, dated 2022)
